# Earlier results in US5965741A, “Ortho-substituted aromatic ether compounds and their use in pharmaceutical compositions for pain relief” (Zeneca Limited, priority 1994, dated 1999).
# System: EP1 receptors
# Conditions: guinea pig ileum or dog fundus
smiles,measurement,value
CC(=O)NNC(=O)N1Cc2ccccc2Oc2ccc(Cl)cc21 [SC-19220],block of the effect of PGE2,blocks the effect of PGE2
